Literature values, collected in US20040143023A1, “Materials and methods for synthesizing stilbenes” (priority 2000, published 2004).

Tests used:
[1] = in water and saline
[2] = test system: P388 murine leukaemia cell line; conditions: cell line not restated for the trans isomer

SMILES: COc1ccc(/C=C\c2cc(OC)c(OC)c(OC)c2)cc1O [cis-combretastatin A-4, Z-1-(3′-Hydroxy-4′-methoxyphenyl)-2-(3″,4″,5″-trimethoxyphenyl)ethene]
- solubility [1]: low solubility
- toxicity toward tumour vasculature (tumour vasculature): potent and selective toxicity

SMILES: COc1ccc(/C=C/c2cc(OC)c(OC)c(OC)c2)cc1O [trans-combretastatin A-4, E-1-(3′-Hydroxy-4′-methoxy)-2-(Trimethoxyphenyl)-2-(3″,4″,5″-trimethoxyphenyl)ethene]
- concentration range in which cell growth is inhibited [2]: millimblar range
